From patent publication EP1175907A1, “REMEDIES” (Takara Shuzo Co, Ltd., priority 1999, dated 2000)

Tests used:
Format in all cases: cell-based, human
[1] = test system: Hs68 cells; test: HGF in medium and cells of Hs68 cells with or without TPA; settings: 10 nM TPA alone
Method: Hs68 cells (human newborn foreskin fibroblasts: manufactured by DAINIPPON PHARMACEUTICAL CO., LTD., ATCC CRL-1635) cultured in a DMEM medium containing 10% fetal bovine serum were suspended in the DMEM medium containing 10% fetal bovine serum so as to have a concentration of 1 × 10^5 cells/ml, and added into each well of a 48-well cell culture plate in a volume of 500 µl each. The cells were cultured for 24 hours. Thereafter, the medium was exchanged for a DMEM medium containing 1% fetal bovine serum, and thereto were added 10 nM TPA and each sample. Also, the same steps were carried out for the group added with only the sample without adding TPA. The medium was collected, and the amount of HGF in the medium was determined by using Quantikine Human Hepatocyte Growth Factor (HGF) ELISA Kit. Further, the cells were washed with PBS, and thereafter dissolved in 500 µl of a cytolytic buffer (50 mM HEPES, pH 7.4; 10 mM EDTA; 0.1% Triton X100; 1 mM PMSF; 1 µg/ml pepstatin A and 1 µg/ml leupeptin). Further, in order to completely dissolve the cells, the mixture was subjected to sonication treatment, and then centrifuged, to give a supernatant (cell extract). The amount of HGF in the cell was determined in the same manner as that of the concentration of HGF in the medium. 7-12SFd-F prepared in item (3) of Reference Example 2 was added so as to have a final concentration of 0.1, 1, 10 or 100 µg/ml. As a negative control, distilled water was added in the same volume as that of the sample. Each experiment was carried out three times, and an average value was taken. In the TPA non-added group, a remarkable production of HGF could not be found. […] In addition, the increase in the amount of HGF when mRNA is increased as described above was very remarkable, as compared to the case where the amount of mRNA is small with no TPA treatment. It was clarified from the above that 7-12SFd-F remarkably promotes the freeing and production of HGF in a case where transcription of mRNA is promoted, so that a large amount of HGF is required.

[2] = test system: HL60 cells; test: HGF mRNA in HL60 cells (RT-PCR); settings: 10 nM TPA, at any time periods (4 to 10 hours)
Method: HL60 cells (human promyelocytic leukemia cell line) cultured in an RPMI 1640 medium containing 10% fetal bovine serum were suspended in an RPMI 1640 medium containing 1% fetal bovine serum so as to have a concentration of 5 × 10^5 cells/ml, and added into each well of a 6-well cell culture plate in a volume of 2 ml each. Thereafter, 10 nM TPA and 7-12SFd-F prepared in item (3) of Reference Example 2 were added each so as to have a final concentration of 100 µg/ml. Also, the same steps were carried out for the group added with only 7-12SFd-F without adding TPA. The cells were further cultured, and a whole RNA was extracted on Hours 4, 6, 8, and 10. In the extraction of the whole RNA, RNeasy Mini Kit (manufactured by QIAGEN) was used. RT-PCR was carried out entirely in the same manner as that in Example 14, except for changing the cycles for PCR to 32 cycles. After the reaction, the reaction mixture was subjected to electrophoresis on a 2% agarose gel and ethidium bromide staining, and the gel was observed under UV irradiation.

[3] = test system: HL60 cells; test: HGF in medium and cells of HL60 cells with or without TPA; settings: 10 nM TPA alone, 24 h
Method: HL60 cells (human promyelocytic leukemia cell line) cultured in an RPMI 1640 medium containing 10% fetal bovine serum were suspended in an RPMI 1640 medium containing 1% fetal bovine serum so as to have a concentration of 5 × 10^5 cells/ml, and added into each well of a 48-well cell culture plate in a volume of 500 µl each. There after, 10 nM TPA was added thereto, and each sample was further added, and the cells were then cultured for 24 hours. Also, the same steps were carried out for the group added with only the sample without adding TPA. The medium was collected, and the amount of HGF in the medium was determined by using the Quantikine Human Hepatocyte Growth Factor (HGF) ELISA Kit. Further, the cells were washed with PBS, and thereafter dissolved in 500 µl of a cytolytic buffer (50 mM HEPES, pH 7.4; 10 mM EDTA; 0.1% Triton X100; 1 mM PMSF; 1 µg/ml pepstatin A and 1 µg/ml leupeptin). Further, in order to completely dissolve the cells, the mixture was subjected to sonication treatment, and then centrifuged, to give a supernatant (cell extract). The amount of HGF in the cells was determined in the same manner as that of the concentration of HGF in the medium. 7-12SFd-F prepared in item (3) of Reference Example 2 was added so as to have a final concentration of 1, 10 or 100 µg/ml. As a negative control, distilled water was added in the same volume as that of the sample. Each experiment was carried out three times, and an average value was taken.

[4] = test system: NHDF cells; test: HGF mRNA in NHDF cells (RT-PCR); settings: 10 nM TPA, at any time periods (4 to 10 hours)
Method: NHDF cells (normal human dermal fibroblasts) cultured in a DMEM medium containing 10% fetal bovine serum were suspended in the DMEM medium containing 10% fetal bovine serum so as to have a concentration of 2.5 × 10^5 cells/ml, and added into each well of a 6-well cell culture plate in a volume of 2 ml each. The cells were cultured at 37°C for 24 hours in the presence of 5% CO2. Thereafter, the medium was exchanged for a DMEM medium containing 1% fetal bovine serum, and thereto were added 10 nM tetradecanoylphorbol 13-acetate (TPA: manufactured by Gibco BRL) and 7-12SFd-F prepared in item (3) of Reference Example 2 each so as to have a final concentration of 100 µg/ml. Also, the same steps were carried out for the group added with only 7-12SFd-F without adding TPA. The cells were further cultured, and a whole RNA was extracted on Hours 4, 6, 8 and 10. In the extraction of the whole RNA, RNeasy Mini Kit (QIAGEN) was used. RT-PCR was carried out entirely in the same manner as that in Example 14, except for changing the cycles for PCR to 28 cycles. After the reaction, the reaction mixture was subjected to electrophoresis on a 2% agarose gel and ethidium bromide staining, and the gel was observed under UV irradiation.

[5] = test system: NHDF cells; test: HGF in medium and cells of NHDF cells with or without TPA; settings: 10 nM TPA alone

CCCCCCCCCCCCCC(=O)O[C@@H]1[C@@H](C)[C@@]2(O)[C@@H](C=C(CO)C[C@]3(O)C(=O)C(C)=C[C@@H]23)[C@@H]2C(C)(C)[C@]12OC(C)=O [TPA, 12-O-tetradecanoylphorbol 13-acetate]
Amount of HGF in Cells [1]: 155.65 pg/Well
Amount of HGF in Medium [1]: 65.54 pg/Well
Total Amount of HGF [1]: 221.19 pg/Well
amount of HGF mRNA [2]: remarkably increased
Amount of HGF in Cells [3]: 83.37 pg/Well
Amount of HGF in Medium [3]: 261.60 pg/Well
Total Amount of HGF [3]: 344.97 pg/Well
amount of HGF mRNA [4]: remarkably increased
Amount of HGF in Cells [5]: 0.24 ng/Well
Amount of HGF in Medium [5]: 0.39 ng/Well
Total Amount of HGF [5]: 0.63 ng/Well
